Experiments:
Format in all cases: functional
[1] = Cytotoxicity against human NCI60 cells assessed as cell growth at 10 uM after 48 hrs by sulforhodamine B assay; conditions: NCI60, 48 h, read-out: Activity
[2] = Cytotoxicity against human NCI60 cells after 48 hrs by sulforhodamine B assay; conditions: NCI60, 48 h; for TGI: read-out: pTGI (converted)
CCRF-CEM = assay: Cytotoxicity against human CCRF-CEM cells after 48 hrs by sulforhodamine B assay
SR = assay: Cytotoxicity against human SR cells after 48 hrs by sulforhodamine B assay
HOP-92 = assay: Cytotoxicity against human HOP92 cells after 48 hrs by sulforhodamine B assay; conditions: HOP-92, 48 h; for TGI: read-out: pTGI (converted)
OVCAR-3 = assay: Cytotoxicity against human OVCAR-3 cells after 48 hrs by sulforhodamine B assay; conditions: OVCAR-3, 48 h; for CC50: read-out: pLC50 (the source's name) (converted); for TGI: read-out: pTGI (converted)
A498 = assay: Cytotoxicity against human A498 cells after 48 hrs by sulforhodamine B assay; conditions: A498, 48 h; for CC50: read-out: pLC50 (the source's name) (converted); for TGI: read-out: pTGI (converted)
RXF 393 = assay: Cytotoxicity against human RXF393 cells after 48 hrs by sulforhodamine B assay; conditions: RXF 393, 48 h
CAKI-1 = assay: Cytotoxicity against human Caki1 cells after 48 hrs by sulforhodamine B assay; conditions: CAKI-1, 48 h
T47D = assay: Cytotoxicity against human T47D cells after 48 hrs by sulforhodamine B assay
HCT-116 = assay: Cytotoxicity against human HCT116 cells after 48 hrs by sulforhodamine B assay; conditions: HCT-116, 48 h
HOP-62 = assay: Cytotoxicity against human HOP62 cells after 48 hrs by sulforhodamine B assay; conditions: HOP-62, 48 h
786-0 = assay: Cytotoxicity against human 786-0 cells after 48 hrs by sulforhodamine B assay; conditions: 786-0, 48 h
[3] = read-out: pLC50 (the source's name) (converted)

Row | SMILES | growth at 10 µM [1] | TGI [2] | also measured
1 | O=C(N/N=C/c1cccnc1)c1ccc(C(F)(F)F)nc1Nc1cccc(C(F)(F)F)c1 | 70.3% | – | –
2 | COc1ccc(Cl)cc1Nc1nc(C(F)(F)F)ccc1C(=O)N/N=C/c1ccncc1 | 62.5% | – | –
3 | Cc1cc(Cl)ccc1Nc1nc(C(F)(F)F)ccc1C(=O)N/N=C/c1ccc([N+](=O)[O-])cc1 | -7.22% | 4.68 µM | GI50 (CCRF-CEM): 0.0427 µM; TGI (CCRF-CEM; read-out: pTGI (converted)): 0.0776 µM
4 | Cc1cc(Cl)ccc1Nc1nc(C(F)(F)F)ccc1C(=O)N/N=C/c1ccc(Cl)cc1Cl | 60.1% | – | –
5 | Cc1ccc(Cl)cc1Nc1nc(C(F)(F)F)ccc1C(=O)N/N=C/c1ccc([N+](=O)[O-])cc1 | 85.7% | – | –
6 | Cc1ccc(Cl)cc1Nc1nc(C(F)(F)F)ccc1C(=O)N/N=C/c1ccc(N(C)C)cc1 | 52.1% | – | –
7 | O=C(N/N=C/c1ccc([N+](=O)[O-])cc1)c1ccc(C(F)(F)F)nc1Nc1cccc(C(F)(F)F)c1 | 95.2% | – | –
8 | Cc1cc(Cl)ccc1Nc1nc(C(F)(F)F)ccc1C(=O)N/N=C/c1ccc(F)cc1 | 6.66% | 7.08 µM | –
9 | Cc1ccc(Cl)cc1Nc1nc(C(F)(F)F)ccc1C(=O)N/N=C/c1ccccc1Cl | 36.2% | – | –
10 | COc1cc(/C=N/NC(=O)c2ccc(C(F)(F)F)nc2Nc2ccc(Cl)cc2C)ccc1O | 26.8% | 10.5 µM | –
11 | COc1cc(/C=N/NC(=O)c2ccc(C(F)(F)F)nc2Nc2ccc(Cl)cc2C)cc(OC)c1OC | 32.3% | – | –
12 | Cc1ccc(Cl)cc1Nc1nc(C(F)(F)F)ccc1C(=O)N/N=C/c1cccc(O)c1 | 90.1% | – | –
13 | O=C(N/N=C/c1c(Cl)cccc1Cl)c1ccccc1Nc1cccc(C(F)(F)F)c1 | 90.6% | – | –
14 | Nc1nc(C(F)(F)F)ccc1C(=O)N/N=C/c1c(Cl)cccc1Cl | 102% | – | –
15 | O=C(N/N=C/c1ccc(F)cc1)c1ccc(C(F)(F)F)nc1Nc1cccc(C(F)(F)F)c1 | 7.73% | 4.47 µM | –
16 | Cc1cc(Cl)ccc1Nc1nc(C(F)(F)F)ccc1C(=O)NCC(=O)N/N=C/c1c(Cl)cccc1Cl | 68.1% | – | –
17 | CN(C)c1ccc(/C=N/NC(=O)c2ccc(C(F)(F)F)nc2Nc2cccc(C(F)(F)F)c2)cc1 | 60.2% | – | –
18 | COc1ccc(Cl)cc1Nc1nc(C(F)(F)F)ccc1C(=O)N/N=C/c1ccc(F)cc1 | 36.5% | – | –
19 | Cc1ccc(Cl)cc1Nc1nc(C(F)(F)F)ccc1C(=O)N/N=C/c1ccncc1 | 67.9% | – | –
20 | Cc1cc(Cl)ccc1Nc1nc(C(F)(F)F)ccc1C(=O)N/N=C/c1ccc(Cl)cc1 | -7.31% | 7.59 µM | –
21 | Cc1cc(Cl)ccc1Nc1nc(C(F)(F)F)ccc1C(=O)N/N=C/c1ccncc1 | 54.2% | – | –
22 | COc1cc(/C=N/NC(=O)c2ccc(C(F)(F)F)nc2Nc2cccc(C(F)(F)F)c2)ccc1O | 50.1% | – | –
23 | O=C(N/N=C/c1ccccc1Cl)c1ccc(C(F)(F)F)nc1Nc1cccc(C(F)(F)F)c1 | 34.2% | – | –
24 | Cc1ccc(Cl)cc1Nc1nc(C(F)(F)F)ccc1C(=O)N/N=C/c1cccnc1 | 20.9% | 12.6 µM | GI50 (SR): 0.0977 µM
25 | Cc1ccc(Cl)cc1Nc1nc(C(F)(F)F)ccc1C(=O)N/N=C/c1ccc(Cl)cc1 | 0.47% | 5.25 µM | GI50 [2]: 1.48 µM

Row | SMILES | growth at 10 µM [1] | TGI [2] | also measured
26 | O=C(N/N=C/c1c(Cl)cccc1Cl)c1ccc(C(F)(F)F)nc1Nc1cccc(C(F)(F)F)c1 | 5.01% | 10.2 µM | GI50 (HOP-92): 0.0447 µM; TGI (HOP-92): 0.417 µM; GI50 (OVCAR-3): 0.191 µM; CC50 (OVCAR-3): 77.6 µM; TGI (OVCAR-3): 0.646 µM; GI50 (A498): 0.191 µM; CC50 (A498): 9.33 µM; TGI (A498): 0.646 µM
27 | Cc1ccc(Cl)cc1Nc1nc(C(F)(F)F)ccc1C(=O)N/N=C/c1ccc(Cl)cc1Cl | 62.6% | – | –
28 | COc1ccc(Cl)cc1Nc1nc(C(F)(F)F)ccc1C(=O)N/N=C/c1ccc(N(C)C)cc1 | 95.6% | – | –
29 | O=C(N/N=C/c1ccc(Cl)cc1)c1ccc(C(F)(F)F)nc1Nc1cccc(C(F)(F)F)c1 | 9.64% | 6.61 µM | GI50 (HOP-92): 0.0437 µM; CC50 (HOP-92; [3]): 20.9 µM; TGI (HOP-92): 0.589 µM
30 | COc1ccc(Cl)cc1Nc1nc(C(F)(F)F)ccc1C(=O)N/N=C/c1ccc([N+](=O)[O-])cc1 | 0.92% | 8.71 µM | –
31 | COc1ccc(Cl)cc1Nc1nc(C(F)(F)F)ccc1C(=O)N/N=C/c1cccnc1 | 44.7% | 79.4 µM | GI50 [2]: 2.95 µM
32 | COc1ccc(Cl)cc1Nc1nc(C(F)(F)F)ccc1C(=O)N/N=C/c1cc(OC)c(OC)c(OC)c1 | 17.6% | 10.5 µM | –
33 | COc1ccc(Cl)cc1Nc1nc(C(F)(F)F)ccc1C(=O)N/N=C/c1cccc(O)c1 | 59.1% | – | –
34 | COc1ccc(Cl)cc1Nc1nc(C(F)(F)F)ccc1C(=O)N/N=C/c1ccc(Cl)cc1Cl | 72.1% | – | –
35 | Cc1cc(Cl)ccc1Nc1nc(C(F)(F)F)ccc1C(=O)N/N=C/c1cccc(O)c1 | 27.1% | 11 µM | GI50 (RXF 393): 0.195 µM; TGI (RXF 393; read-out: pTGI (converted)): 11.2 µM; GI50 (CAKI-1): 0.017 µM; CC50 (CAKI-1; [3]): 24 µM; TGI (CAKI-1; read-out: pTGI (converted)): 3.31 µM; GI50 (T47D): 0.0355 µM; CC50 (T47D; [3]): 21.4 µM; TGI (T47D; read-out: pTGI (converted)): 2.14 µM
36 | Cc1cc(Cl)ccc1Nc1nc(C(F)(F)F)ccc1C(=O)N/N=C/c1ccccc1Cl | 14.8% | 5.13 µM | GI50 (OVCAR-3): 0.191 µM; CC50 (OVCAR-3): 8.32 µM; TGI (OVCAR-3): 0.513 µM; GI50 (A498): < 0.01 µM; CC50 (A498): 17.8 µM; TGI (A498): 2.69 µM
37 | Cc1ccc(Cl)cc1Nc1nc(C(F)(F)F)ccc1C(=O)N/N=C/c1ccc(F)cc1 | 33% | – | –
38 | O=C(N/N=C/c1cccc(O)c1)c1ccc(C(F)(F)F)nc1Nc1cccc(C(F)(F)F)c1 | 103% | – | –
39 | Cc1ccc(Cl)cc1Nc1nc(C(F)(F)F)ccc1C(=O)N/N=C/c1c(Cl)cccc1Cl | -3.82% | 6.17 µM | GI50 (HCT-116): 0.214 µM; CC50 (HCT-116; [3]): 3.31 µM; TGI (HCT-116; read-out: pTGI (converted)): 0.49 µM; GI50 (HOP-62): 0.251 µM; CC50 (HOP-62; [3]): 5.75 µM; TGI (HOP-62; read-out: pTGI (converted)): 0.776 µM; GI50 (786-0): 0.251 µM; CC50 (786-0; [3]): 3.02 µM; TGI (786-0; read-out: pTGI (converted)): 0.603 µM; GI50 (SR): 0.0562 µM; CC50 (SR; [3]): 41.7 µM; TGI (SR; read-out: pTGI (converted)): 2.69 µM
40 | COc1cc(/C=N/NC(=O)c2ccc(C(F)(F)F)nc2Nc2cccc(C(F)(F)F)c2)cc(OC)c1OC | 44.5% | – | –
41 | COc1cc(/C=N/NC(=O)c2ccc(C(F)(F)F)nc2Nc2cc(Cl)ccc2OC)ccc1O | 42.1% | – | –
42 | Cc1cc(Cl)ccc1Nc1nc(C(F)(F)F)ccc1C(=O)N/N=C/c1cccnc1 | 47.2% | – | –
43 | O=C(N/N=C/c1ccc(Cl)cc1Cl)c1ccc(C(F)(F)F)nc1Nc1cccc(C(F)(F)F)c1 | 66.3% | – | –
44 | Cc1cc(Cl)ccc1Nc1nc(C(F)(F)F)ccc1C(=O)N/N=C/c1ccc(N(C)C)cc1 | 23.2% | 66.1 µM | GI50 [2]: 1.7 µM
45 | COc1cc(/C=N/NC(=O)c2ccc(C(F)(F)F)nc2Nc2cc(Cl)ccc2C)ccc1O | 47.2% | – | –
46 | O=C(N/N=C/c1ccncc1)c1ccc(C(F)(F)F)nc1Nc1cccc(C(F)(F)F)c1 | 10.8% | 8.71 µM | –
47 | COc1cc(/C=N/NC(=O)c2ccc(C(F)(F)F)nc2Nc2cc(Cl)ccc2C)cc(OC)c1OC | 94% | – | –
48 | O=C(N/N=C/c1c(Cl)cccc1Cl)c1cccnc1Nc1cccc(C(F)(F)F)c1 | 37.8% | 39.8 µM | –
49 | O=C(O)CCCc1ccc(N(CCCl)CCCl)cc1 [CHLORAMBUCIL] | – | 35.5 µM | –
